Assay results as given in paper PMC6454048, “Identification of Cbp1, a c-di-GMP Binding Chemoreceptor in Azorhizobium caulinodans ORS571 Involved in Chemotaxis and Nodulation of the Host Plant” (Frontiers in Microbiology, 2019).

Target: T1, Cbp1 (c-di-GMP binding protein 1; PilZ domain containing chemoreceptor) (Azorhizobium caulinodans, UniProt A8II15)
T1 construct: gene AZC_3349; Cbp1 ORF with C-terminal 6×His tag, expressed in E. coli Top10
Test: ITC ([…] protein titrated with […] c-di-GMP); also protein thermal shift assay

T1 sequence (A8II15 1-581): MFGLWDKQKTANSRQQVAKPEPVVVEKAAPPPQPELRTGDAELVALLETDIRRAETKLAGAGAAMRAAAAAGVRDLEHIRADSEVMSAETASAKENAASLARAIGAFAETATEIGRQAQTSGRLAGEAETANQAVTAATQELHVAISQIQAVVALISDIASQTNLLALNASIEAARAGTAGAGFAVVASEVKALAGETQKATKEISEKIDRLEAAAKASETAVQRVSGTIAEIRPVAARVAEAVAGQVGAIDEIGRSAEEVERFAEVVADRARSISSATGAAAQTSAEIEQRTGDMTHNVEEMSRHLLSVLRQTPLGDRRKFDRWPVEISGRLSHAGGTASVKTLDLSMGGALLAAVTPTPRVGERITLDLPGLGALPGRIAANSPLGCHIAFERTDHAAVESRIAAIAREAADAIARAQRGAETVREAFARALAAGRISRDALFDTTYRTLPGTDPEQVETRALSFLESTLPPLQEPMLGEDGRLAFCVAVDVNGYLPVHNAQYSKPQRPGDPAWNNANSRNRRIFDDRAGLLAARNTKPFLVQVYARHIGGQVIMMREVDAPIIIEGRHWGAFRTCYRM

Nc1nc2c(ncn2[C@@H]2O[C@@H]3CO[P@](=O)(O)O[C@H]4[C@@H](O)[C@H](n5cnc6c(=O)[nH]c(N)nc65)O[C@@H]4CO[P@](=O)(O)O[C@H]3[C@H]2O)c(=O)[nH]1 [c-di-GMP]
Kd: 14.9 ± 1.6 µM
